Measurements reported in patent publication US20260123630A1, “COMPOSITIONS INCLUDING ENCAPSULATED BIXLOZONE AND NON ENCAPSULATED BIXLOZONE” (FMC CORPORATION, priority 2022, published 2026).

System: corn
Test: Crop injury studies in corn
Format: in vivo
Experimental: The maximum crop injury from encapsulated and non-encapsulated bixlozone compositions were assessed for corn. The compositions were applied at post-seeding pre-emergence and post-emergence.
The numbers in parentheses indicate the application rate of the applied compositions in g ai/ha.

Q: With `CCCCCC(C)OC(=O)COc1ccc(Cl)c2cccnc12` (centres unmarked) [cloquintocet-mexyl] as the compound, how does the “Effect of mixture partner on crop injury (in words)” value (post-emergence BBCH 11-12, FIG. 5) read?
A: no observed effect

Q: What about the “Effect of mixture partner on crop injury (in words)” value (post-emergence BBCH 13-15, FIG. 6) of the same compound?
A: no observed effect
